Assay results published in US20110207751A1, “HETEROCYCLIC COMPOUNDS AND USES AS ANTICANCER AGENTS” (priority 2010, published 2011).
Counter-ions that a name gives are not always drawn. One block for each compound: values may come before it.

Columns and labels:
[1] = system: H460 human non-small cell lung cancer xenograft; assay: In vivo antitumor efficacy, H460 xenograft; design: species or system BALB/c immunodeficient nude mice; details: for Tumor inhibition rate %: by tumor weight
From the text: To evaluate the in vivo anticancer efficacy of COMPOUND O, H460 human non-small cell lung Cancer xenograft models in immunodeficient nude mice was used. The cell line and mice were maintained in the Pharmacology Lab of ACEA Bio (Hangzhou) CO., Ltd. The BALB/c immunodeficient nude mice were purchased from Shanghai SLAC Laboratory Animal, certification number: SCXKA (Shanghai) 2007-0005. The mouse weight was between 19±2 g. Only female mice were used in this study. The numbers of animals tested were as follows: 7 for each dose group, 7 for positive control group and 7 for negative control group.
Test Control. For negative control, each mouse was administered orally with the solvent only having the same volume and same concentration as those used in COMPOUND O test, 120 mg/kg once every other day (qod) for 25 days. For positive control, an oral anticancer compound, Etoposide was administered orally at 30 mg/kg qod for 25 days.
Preparation an Administration of Test Compounds. COMPOUND O was dissolved in 25% phospholipid (S75) and 75% polyvinylpyrrolidone (PL-PVP) then further diluted to 8 mg/ml in 0.9% NaCl aqueous solution. Each mouse was administered orally with the compound solution. Different dosages of COMPOUND O (120 mg/kg qod and 160 mg/kg q3d) were used in the study.
Preparation of tumor cells for transplantation and determination of compound efficacy. To prepare the cancer cells for H460 human non-small cell lung cancer xenograft model, the log phase growing cell in the flask were trypsinized and cells were re-suspended in PBS (pH 7.2) at 1.5×10^7 cells/ml. The cell suspension (3×10^6 cells) was subcutaneously injected into the auxiliary region (right-side) of each mouse. After the inoculated cancer cells grew to a tumor of certain size (150 mm^3) in the nude mice, the mice were randomized into different dosing groups and subjected to compound treatment. Between 3-4 weeks after the first dosing, mice were sacrificed and the transplanted tumors were removed from experimental mice. Each removed solid tumor was weighed; the tumor inhibition rate in each dosage group was calculated according to equation (1) in Example 1.
All used materials including animal food, animal cage, supporting materials and apparatus contacted by animals, were high-pressure sterilized. Nude mice were maintained in laminar flow shelves under SPF condition. After tumor transplantation, mouse weight and tumor size in each compound dosage group were dynamically monitored and plotted. The tumor size was determined by measuring the major axis (a) and minor axis (b) of the tumor, and tumor volume was calculated according to the formula (2) in Example 1.

[2] = system: H1838 cells (human non-small cell lung cancer cell line); assay: Inhibition of cell proliferation, xCelligence cell index; format: cell-based; details: NCI-H1838, 72 hr post compound treatment, read-out: calculated IC50
From the text: (§1) The biological activity of compounds disclosed herein was monitored and profiled using the Real-Time Cell Electronic Sensing (RT-CES®) system from ACEA Biosciences, Inc. The RT-CES system utilizes cell-substrate impedance technology to monitor cellular behavior inside tissue culture wells in a microtiter plate format. The technology features in the integration of molecular and cell biology with microelectronics and is based on the electronic detection of biological assay process. […]
(§2) For measurement of cell-substrate or cell-electrode impedance using RT-CES technology, microelectrodes having appropriate geometries are fabricated onto the bottom surfaces of microtiter plate or similar device, facing into the wells. […] When there are changes to the biological status of the cells analogue electronic readout signals are measured automatically and in real time, and are converted to digital signals for processing and for analysis. In a RT-CES system, a cell index (arbitrary representation of change in impedance) is automatically derived and provided based on measured electrode impedance values. […]
(§3) To quantify cell status based on the measured cell-electrode impedance, a parameter termed Cell Index is derived. Cell Index is a quantitative measure of the status of the cells in an electrode-containing well. […]

[3] = system: SKOV3 cells (human ovarian cancer cell line); assay: as above; format: cell-based; details: SK-OV-3, 72 hr post compound treatment, read-out: calculated IC50
From the text: as §1, §2, §3

SMILES: COc1cc([C@@H]2c3cc4c(cc3[C@@H](O[C@@H]3O[C@@H]5CO[C@@H](C)O[C@H]5[C@H](O)[C@H]3O)[C@H]3COC(=O)[C@H]23)OCO4)cc(OC)c1O [Etoposide, reference compound]
TV inhibition rate % T/C ([1]; 30 mg/kg ig × 13 qod): 50.4%
Tumor volume (mm^3) End ([1]; 30 mg/kg ig × 13 qod): 775.43 ± 302.62 mm^3
Tumor volume (mm^3) Start ([1]; 30 mg/kg ig × 13 qod): 163.79 ± 57.22 mm^3
Tumor weight (g) x ± SD ([1]; 30 mg/kg ig × 13 qod): 0.76 ± 0.29 g
Tumor inhibition rate % ([1]; 30 mg/kg ig × 13 qod): 48.4%

IC50 [2]: 3.16 nM
SMILES: CC[C@]1(O)C[C@H]2CN(CCc3c([nH]c4ccccc34)[C@@](C(=O)OC)(c3cc4c(cc3OC)N(C=O)[C@H]3[C@@](O)(C(=O)OC)[C@H](OC(C)=O)[C@]5(CC)C=CCN6CC[C@]43[C@@H]65)C2)C1 [vincristine]

IC50 [3]: 5.47 nM
IC50 [2]: 11.8 nM
SMILES: CCc1ccc(Nc2nc(-c3c(C)nc4sccn34)cs2)cc1 [COMPOUND O, 2-(4-ethylphenyl)amino-4-(6-methylimidazo[2,1-b]thiazol-5-yl)-thiazole monohydrobromide]
TV inhibition rate % T/C ([1]; 120 mg/kg ig × 11 qod): 47.0%
Tumor volume (mm^3) End ([1]; 120 mg/kg ig × 11 qod): 745.28 ± 245.55 mm^3
Tumor volume (mm^3) Start ([1]; 120 mg/kg ig × 11 qod): 162.09 ± 53.94 mm^3
Tumor weight (g) x ± SD ([1]; 120 mg/kg ig × 11 qod): 0.81 ± 0.29 g
Tumor inhibition rate % ([1]; 120 mg/kg ig × 11 qod): 47.1%
TV inhibition rate % T/C ([1]; 160 mg/kg ig × 9 q3d): 69.9%
Tumor volume (mm^3) End ([1]; 160 mg/kg ig × 9 q3d): 524.67 ± 141.77 mm^3
Tumor volume (mm^3) Start ([1]; 160 mg/kg ig × 9 q3d): 171.44 ± 53.63 mm^3
Tumor weight (g) x ± SD ([1]; 160 mg/kg ig × 9 q3d): 0.46 ± 0.13 g
Tumor inhibition rate % ([1]; 160 mg/kg ig × 9 q3d): 31.3%

IC50 [3]: 5.34 nM
SMILES: CC(=O)O[C@H]1C(=O)[C@@]2(C)[C@H]([C@H](OC(=O)c3ccccc3)[C@]3(O)C[C@H](OC(=O)[C@H](O)[C@@H](NC(=O)c4ccccc4)c4ccccc4)C(C)=C1C3(C)C)[C@]1(OC(C)=O)CO[C@@H]1C[C@@H]2O [paclitaxel]
